The text below walks through data of article PMC11085682, “Identification of Novel Peptides in Distillers’ Grains as Antioxidants, α-Glucosidase Inhibitors, and Insulin Sensitizers: In Silico and In Vitro Evaluation” (Nutrients, 2024).

This test relates to HepG2 cells. As to the kind of experiment: H2O2-induced intracellular ROS scavenging in HepG2 cells (DCFH-DA, flow cytometry). To be noted: VC 10.0 µmol/L 24 h, then 1.2 mmol/L H2O2 seven hours, median (25%, 75% quartiles), n = 4, model M 139.46 %, blank K 101 %. Type of test: cell-based, human. On the procedure: According to Liu et al. (2020), the H2O2-induced scavenging activity of reactive oxygen species was evaluated. In this experiment, various groups were established, including the blank, sample, positive control, and model groups. Refer to the Supplementary Materials for specific information. […]
and NDPF concentrations were 1.0 mmol/L, and the positive control rosiglitazone concentration was 20.0 µmol/L. At the end of the incubation, the glucose content in the culture medium was measured using the glucose oxidase-peroxidase method kit by Nanjing Jiancheng Biological Co., Ltd., and the glucose content was calibrated by measuring the cell activity using the MTT […]
7. Evaluation of scavenging capacity against intracellular ROS
HepG2 cells (2.0 mL/well, 1×10^4 cells/well) were inoculated in 6-well plate and cultured overnight. VC (10.0 µmol/L) or peptides YPLPR, AFEPLR, and NDPF (1.0 mmol/L) were added to each well, and the cells were incubated for an additional 24 hours. Following the incubation, the culture medium was aspirated, and the cells were washed thoroughly with PBS twice. Subsequently, cells in all experimental groups, except for the control group, were exposed to 1.2 mmol/L H2O2 for seven hours. […] After incubation, the cells were rinsed twice with culture medium devoid of FBS and analyzed using a Millipore flow cytometer (Guava easy Cyte 6-2L, Billerica, MA) within 30 minutes.
For orientation: In flow cytometry, cells or beads pass a laser one at a time.

Turning to `O=C1O[C@H]([C@@H](O)CO)C(O)=C1O` [VC], the “Relative intracellular ROS content” value was 92.03 (90.83, 98.11) %.
